Measurements from patent publication US5872281A, “Amino acid derivative having N,N-dialkylaminophenyl group” (Santen Pharmaceutical Co., Ltd., priority 1995, dated 1999).
pIC50: −log10 of the molar value.

Key:
LTA4 hydrolase [1] = biological target: T1, LTA4 hydrolase (Cavia porcellus, UniProt P19602); experiment: LTA4 hydrolase inhibition, LTB4 produced from LTA4 (guinea pig lung enzyme preparation), measured by HPLC; assay type: biochemical; conditions: LTA4 63 μM; HEPES 50 mM, pH 7.8; enzyme preparation 0.4-0.6 mg protein; DTT 3 mM; 37° C., one minute; read-out: IC50 (concentration required to inhibit LTA4 hydrolase by 50%)
T1 construct: prepared by extracting roughly from guinea pig lung; from tissue; host or cells: guinea pig (Hartley) lung, 100,000×g supernatant, 40-70% ammonium sulfate fraction, dialyzed
T1 sequence (P19602 1-611): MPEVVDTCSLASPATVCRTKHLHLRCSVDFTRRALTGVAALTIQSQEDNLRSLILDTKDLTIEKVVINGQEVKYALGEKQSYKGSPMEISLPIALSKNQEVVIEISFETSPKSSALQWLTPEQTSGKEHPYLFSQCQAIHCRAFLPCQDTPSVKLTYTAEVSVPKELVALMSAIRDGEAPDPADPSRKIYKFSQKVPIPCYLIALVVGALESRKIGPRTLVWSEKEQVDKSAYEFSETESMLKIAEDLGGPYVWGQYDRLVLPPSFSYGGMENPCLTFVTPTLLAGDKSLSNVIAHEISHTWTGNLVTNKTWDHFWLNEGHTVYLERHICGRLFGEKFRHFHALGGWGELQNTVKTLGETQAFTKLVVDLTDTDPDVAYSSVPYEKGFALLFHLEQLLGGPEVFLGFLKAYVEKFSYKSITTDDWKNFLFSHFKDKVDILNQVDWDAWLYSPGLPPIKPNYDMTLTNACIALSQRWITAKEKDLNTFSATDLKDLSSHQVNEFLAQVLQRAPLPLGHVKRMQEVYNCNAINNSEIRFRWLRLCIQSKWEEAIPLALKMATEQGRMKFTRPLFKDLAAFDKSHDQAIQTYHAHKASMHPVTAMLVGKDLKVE
Procedure: Izumi et al. had reported a method of measuring LTA4 hydrolase activity by measuring an amount of LTB4 produced by an enzymatic reaction using LTA4 as a substrate (Biochem. Biophys. Res. Commun., 135, 139-145 (1986)). Effects of the present compounds on LTA4 hydrolase were examined according to the method described in the literature.
An enzyme preparation used in this pharmacological test was prepared by extracting roughly from guinea pig lung by the following method, according to the method of Izumi et al. (Biochem. Biophys. Res. Commun., 135, 139-145 (1986)) and the method of Evans et al. (Biochem. Biophys. Acta, 840, 43-50 (1985)).
Lungs were excised from Hartley guinea pigs (body weight: 330 g). The lungs were homogenized in phosphoric acid buffer (50 mM, pH 7.4, containing 1 mM ethylenediaminetetraacetic acid (EDTA) and 1 mM dithiothreitol (DTT)) having weight three times that of the lungs under ice-cooling. The homogenate was centrifuged at low speed (800×g) for 20 minutes, centrifuged at high speed (10,000×g) for 20 minutes and ultraccntrifugcd (100,000×g) for 60 minutes to give a supernatant. The supernatant was brought to 40% saturation by adding a saturated aqueous ammonium sulfate solution (pH 7.0-7.2, containing 1 mM DTT) dropwise under ice-cooling and centrifuged at high speed (10,000×g) for 20 minutes. The resulting supernatant was brought to 70% saturation by adding a saturated aqueous ammonium sulfate solution (pH 7.0-7.2, containing 1 mM DTT) dropwise and centrifuged at high speed (10,000×g) for 20 minutes. The obtained pellet was dissolved in 2 ml of Tris-acetic acid buffer (20 mM, pH 7.8, containing 1 mM DTT) and dialyzed in 2 liters of the solution to give the enzyme preparation.
LTA4 used, which is the substrate, was prepared by hydrolyzing LTA4 methyl ester and dissolved in ethanol.
In order to examine effects of the present compounds on the enzyme preparation, reactions were performed under the following condition using mixed solutions consisting of the composition shown in Table 1. […]
HEPES buffer 50 mM, pH 7.8
Enzyme preparation 0.4-0.6 mg protein
The above-mentioned solution (50 μl) was incubated at 37° C. for one minute. To the reaction mixture was added 100 μl of a mixed liquid of acetonitrile-ethanol-acetic acid (150:50:3, volume ratio) under ice-cooling. The mixture was allowed to stand at -20° C. for 30 minutes and centrifuged at high speed (10,000×g) for five minutes to give a supernatant. An amount of LTB4 produced in the supernatant was measured by high-speed liquid chromatography.
The degree of the inhibitory effect of each test compound on LTA4 hydrolase is expressed by the inhibition rate calculated by the following equation. [formula] Results

LTA4 hydrolase [2] = conditions: JP-A 2-134375; J. Med. Chem., 37, 3197-3199 (1994); cited from earlier work
[3] = tested on: arthritis in a collagen-induced arthritis model; conditions: J. Med. Chem., 37, 3197-3199 (1994); cited from earlier work

pIC50 (LTA4 hydrolase [1]) | SMILES | LTA4 hydrolase inhibitory activity (reported, in words) (LTA4 hydrolase [2]) | inhibition of sideration of arthritis (in words) [3]
6.40 | CCC(CS)C(=O)N[C@@H](CSCc1ccc(N(C)C)cc1)C(=O)O (mixture of isomers) [Compound No. 3-22, (2R)-3-[4-(N,N-Dimethylamino)benzylthio]-2-[(2RS)-2-ethyl-3-mercaptopropionylamino]propionic acid] | – | –
5.96 | CC(C)C(CS)C(=O)N[C@@H](CSCc1ccc(N(C)C)cc1)C(=O)O (mixture of isomers) [Compound No. 3-24, (2R)-3-[4-(N,N-Dimethylamino)benzylthio]-2-[(2RS)-2-isopropyl-3-mercaptopropionylamino]propionic acid] | – | –
– | O=C(O)c1cccc(C2CO2)c1 (stereo not shown) [3-Oxiranyl benzoic acid] | LTA4 hydrolase inhibitory activity | –
6.54 | CCCC(CS)C(=O)N[C@@H](CSCc1ccc(N(C)C)cc1)C(=O)O (mixture of isomers) [Compound No. 3-23, (2R)-3-[4-(N,N-Dimethylamino)benzylthio]-2-[(2RS)-3-mercapto-2-propylpropionylamino]propionic acid] | – | –
5.25 | C[C@H](S)C(=O)N[C@@H](CSCc1ccc(N(C)C)cc1)C(=O)O [Compound No. 3-19, (2R)-3-[4-(N,N-Dimethylamino)benzylthio]-2-[(2S)-2-mercaptopropionylamino]propionic acid] | – | –
5.42 | CN(C)c1ccc(CSC[C@H](NC(=O)C(CS)CCc2ccccc2)C(=O)O)cc1 (single isomer, unassigned) [Compound No. 3-27, (2R)-3-[4-(N,N-Dimethylamino)benzylthio]-2-[(2R or 2S)-2-phenetyl-3-mercaptopropionylamino]propionic acid] | – | –
6.05 | CCN(CC)c1ccc(CSC[C@H](NC(=O)[C@H](C)CS)C(=O)O)cc1 [Compound No. 3-9, (2R)-3-[4-(N,N-Diethylamino)benzylthio]-2-[(2S)-3-mercapto-2-methylpropionyl]aminopropionic acid] | – | –
6.30 | CN(C)c1ccc(CSC[C@H](NC(=O)C(CS)CCc2ccccc2)C(=O)O)cc1 (single isomer, unassigned) [Compound No. 3-26, (2R)-3-[4-(N,N-Dimethylamino)benzylthio]-2-[(2S or 2R)-2-phenetyl-3-mercaptopropionylamino]propionic acid] | – | –
– | O=C(O)C1(c2ccc3c(c2)OC[C@H](Cc2ccc(-c4ccccc4)cc2)[C@H]3O)CCCC1 [(+)-1-(3S, 4R)-[3-(4-phenylbenzyl)-4-hydroxychroman-7-yl]cyclopentanecarboxylic acid] | LTA4 hydrolase inhibitory activity | inhibit sideration of arthritis
6.23 | CCOC(=O)[C@H](CSCc1ccc(N(C)C)cc1)NC(=O)[C@H](C)CS [Compound No. 8-1, Ethyl (2R)-3-[4-(N,N-dimethylamino)benzylthio]-2-[(2S)-3-mercapto-2-methylpropionylamino]propionate] | – | –
6.62 | C[C@H](CS)C(=O)N[C@@H](CSCc1ccc(N(C)C)cc1)C(=O)O [Compound No. 3-1, (2R)-3-[4-(N,N-Dimethylamino)benzylthio]-2-[(2S)-3-mercapto-2-methylpropionylamino]propionic acid] | – | –

SMILES | pIC50 (LTA4 hydrolase [1]) | LTA4 hydrolase inhibitory activity (reported, in words) (LTA4 hydrolase [2]) | inhibition of sideration of arthritis (in words) [3]
C[C@@H](CS)C(=O)N[C@@H](CSCc1ccc(N(C)C)cc1)C(=O)O [Compound No. 3-21, (2R)-3-[4-(N,N-Dimethylamino)benzylthio]-2-[(2R)-3-mercapto-2-methylpropionylamino]propionic acid] | 5.82 | – | –
